Assay results from PubChem BioAssay AID720514 (Broad Institute, 2013).

Test system: U2OS PGC1a acetylation, AlphaLISA, overnight
Experiment: inhibitors of PGC1a acetylation in cells, dose response, cell-based, cherry-picked samples (AID 720514);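 note: actives lower the acetylation signal so they count as inhibitors of PGC1a acetylation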

C[C@H]1[C@@H](OS(=O)(=O)O)C[C@@H]2C[C@H]([C@@H](O)c3cc(=O)[nH]c(=O)[nH]3)NC3=NC[C@H]1N32
AC50: 3.65 µM

C[C@H]1CN([C@@H](C)CO)C(=O)Cc2cc(NC(=O)Nc3ccccc3)ccc2O[C@@H]1CN(C)Cc1ccccc1
AC50: 21.5 µM
